Measurements as given in patent publication US10004701B2, “Methods and compositions for treating infection” (UNIVERSITY OF ROCHESTER, priority 2012, dated 2018).
Counter-ions that a name gives are not always drawn. Like-named read-outs stand apart in the source and are kept apart here.

What was measured:
Assay in all cases: AK assay 384-well format, Prestwick library screening
E. faecium = assay type: cell-based, Enterococcus faecium; details: 50 μM final drug concentration; for fold induction at 50 µM: Enterococcus faecium, 3 h; for AK-based Prestwick Library Screening Results, E. faecium (fold increase in extracellular AK activity): cutoff for positive 3-fold increase
[1] = system: S. aureus strain USA300-0114; assay type: cell-based, Staphylococcus aureus; details: 50 μM final drug concentration; for fold induction at 50 µM: Staphylococcus aureus, USA300, 3 h; for AK-based Prestwick Library Screening Results, S. aureus (fold increase in extracellular AK activity): cutoff for positive 3-fold increase
K. pneumoniae = assay type: cell-based, Klebsiella pneumoniae; details: 50 μM final drug concentration; for fold induction at 50 µM: Klebsiella pneumoniae, 3 h; for AK-based Prestwick Library Screening Results, K. pneumoniae (fold increase in extracellular AK activity): cutoff for positive 3-fold increase
[2] = system: A. baumannii strain 98-37-09; assay type: cell-based, Acinetobacter baumannii; details: 50 μM final drug concentration; for fold induction at 50 µM: Acinetobacter baumannii, 983709, 3 h; for AK-based Prestwick Library Screening Results, A. baumannii (fold increase in extracellular AK activity): cutoff for positive 3-fold increase
P. aeruginosa = assay type: cell-based, Pseudomonas aeruginosa; details: 50 μM final drug concentration; for fold induction at 50 µM: Pseudomonas aeruginosa, 3 h; for AK-based Prestwick Library Screening Results, P. aeruginosa (fold increase in extracellular AK activity): cutoff for positive 3-fold increase
E. cloacae = assay type: cell-based, Enterobacter cloacae; details: 50 μM final drug concentration; for fold induction at 50 µM: Enterobacter cloacae, 3 h; for AK-based Prestwick Library Screening Results, E. cloacae (fold increase in extracellular AK activity): cutoff for positive 3-fold increase
E. coli = assay type: cell-based, Escherichia coli; details: 50 μM final drug concentration; for fold induction at 50 µM: Escherichia coli, 3 h; for AK-based Prestwick Library Screening Results, E. coli (fold increase in extracellular AK activity): cutoff for positive 3-fold increase
[3] = planktonic E. faecium, 384-well, cutoff for positive-scoring molecules 3-fold increase, read-out: AK-based Prestwick Library Screening Results: E. faecium (increase in extracellular AK activity)
[4] = planktonic S. aureus, 384-well, cutoff for positive-scoring molecules 3-fold increase, read-out: AK-based Prestwick Library Screening Results: S. aureus (increase in extracellular AK activity)
[5] = planktonic K. pneumoniae, 384-well, cutoff for positive-scoring molecules 3-fold increase, read-out: AK-based Prestwick Library Screening Results: K. pneumoniae (increase in extracellular AK activity)
[6] = planktonic A. baumannii, 384-well, cutoff for positive-scoring molecules 3-fold increase, read-out: AK-based Prestwick Library Screening Results: A. baumannii (increase in extracellular AK activity)
[7] = planktonic P. aeruginosa, 384-well, cutoff for positive-scoring molecules 3-fold increase, read-out: AK-based Prestwick Library Screening Results: P. aeruginosa (increase in extracellular AK activity)
[8] = planktonic E. cloacae, 384-well, cutoff for positive-scoring molecules 3-fold increase, read-out: AK-based Prestwick Library Screening Results: E. cloacae (increase in extracellular AK activity)
[9] = planktonic E. coli, 384-well, cutoff for positive-scoring molecules 3-fold increase, read-out: AK-based Prestwick Library Screening Results: E. coli (increase in extracellular AK activity)
[10] = planktonic, cutoff for positive-scoring molecules 3-fold increase, read-out: AK-based Prestwick Library Screening Results, E. faecium (fold increase in extracellular AK activity)
[11] = planktonic, cutoff for positive-scoring molecules 3-fold increase, read-out: AK-based Prestwick Library Screening Results, S. aureus (fold increase in extracellular AK activity)
[12] = planktonic, cutoff for positive-scoring molecules 3-fold increase, read-out: AK-based Prestwick Library Screening Results, K. pneumoniae (fold increase in extracellular AK activity)
[13] = planktonic, cutoff for positive-scoring molecules 3-fold increase, read-out: AK-based Prestwick Library Screening Results, A. baumannii (fold increase in extracellular AK activity)
[14] = planktonic, cutoff for positive-scoring molecules 3-fold increase, read-out: AK-based Prestwick Library Screening Results, P. aeruginosa (fold increase in extracellular AK activity)
[15] = planktonic, cutoff for positive-scoring molecules 3-fold increase, read-out: AK-based Prestwick Library Screening Results, E. cloacae (fold increase in extracellular AK activity)
[16] = planktonic, cutoff for positive-scoring molecules 3-fold increase, read-out: AK-based Prestwick Library Screening Results, E. coli (fold increase in extracellular AK activity)

OCCN1CCN(CCCN2c3ccccc3Sc3ccc(C(F)(F)F)cc32)CC1 [Fluphenazine dihydrochloride]
fold induction at 50 µM (E. faecium; [3]): 1.1 | fold induction at 50 µM [1, 4]: 1 | fold induction at 50 µM (K. pneumoniae; [5]): 1.5 | fold induction at 50 µM [2, 6]: 1.6 | fold induction at 50 µM (P. aeruginosa; [7]): 1.1 | fold induction at 50 µM (E. cloacae; [8]): 1.6 | fold induction at 50 µM (E. coli; [9]): 1.3

Cc1c(NC(C)C)c(=O)n(-c2ccccc2)n1C.Cl [Isopyrin hydrochloride]
AK-based Prestwick Library Screening Results, E. faecium (fold increase in extracellular AK activity) (E. faecium; planktonic): 0.8 | AK-based Prestwick Library Screening Results, S. aureus (fold increase in extracellular AK activity) ([1]; planktonic): 0.4 | AK-based Prestwick Library Screening Results, K. pneumoniae (fold increase in extracellular AK activity) (K. pneumoniae; planktonic): 0.4 | AK-based Prestwick Library Screening Results, A. baumannii (fold increase in extracellular AK activity) ([2]; planktonic): 0.3 | AK-based Prestwick Library Screening Results, P. aeruginosa (fold increase in extracellular AK activity) (P. aeruginosa; planktonic): 0.4 | AK-based Prestwick Library Screening Results, E. cloacae (fold increase in extracellular AK activity) (E. cloacae; planktonic): 0.3 | AK-based Prestwick Library Screening Results, E. coli (fold increase in extracellular AK activity) (E. coli; planktonic): 0.4

CC(C)(C(=O)c1cccnc1)c1cccnc1 [Metyrapone]
fold induction at 50 µM (E. faecium; [10]): 0.8 | fold induction at 50 µM [1, 11]: 0.8 | fold induction at 50 µM (K. pneumoniae; [12]): 0.7 | fold induction at 50 µM [2, 13]: 1 | fold induction at 50 µM (P. aeruginosa; [14]): 1 | fold induction at 50 µM (E. cloacae; [15]): 1.2 | fold induction at 50 µM (E. coli; [16]): 0.9

CC1Cc2ccccc2N1NC(=O)c1ccc(Cl)c(S(N)(=O)=O)c1 (stereo not drawn) [Indapamide]
fold induction at 50 µM (E. faecium; [3]): 1.1 | fold induction at 50 µM [1, 4]: 1 | fold induction at 50 µM (K. pneumoniae; [5]): 1.1 | fold induction at 50 µM [2, 6]: 1 | fold induction at 50 µM (P. aeruginosa; [7]): 1.1 | fold induction at 50 µM (E. cloacae; [8]): 1.7 | fold induction at 50 µM (E. coli; [9]): 1.1

CCC(=O)OCC(=O)[C@@]1(OC(=O)CC)[C@H](C)C[C@H]2[C@H]3[C@H]([C@@H](O)C[C@@]21C)[C@@]1(C)C=CC(=O)C=C1C[C@H]3Cl [Alclometasone dipropionate]
fold induction at 50 µM (E. faecium; […], read-out: AK-based Prestwick Library Screening Results, E. faecium (fold increase in extracellular AK activity)): 1 | fold induction at 50 µM ([1]; […], read-out: AK-based Prestwick Library Screening Results, S. aureus (fold increase in extracellular AK activity)): 1.1 | fold induction at 50 µM (K. pneumoniae; […], read-out: AK-based Prestwick Library Screening Results, K. pneumoniae (fold increase in extracellular AK activity)): 1.1 | fold induction at 50 µM ([2]; […], read-out: AK-based Prestwick Library Screening Results, A. baumannii (fold increase in extracellular AK activity)): 0.9 | fold induction at 50 µM (P. aeruginosa; […], read-out: AK-based Prestwick Library Screening Results, P. aeruginosa (fold increase in extracellular AK activity)): 1 | fold induction at 50 µM (E. cloacae; […], read-out: AK-based Prestwick Library Screening Results, E. cloacae (fold increase in extracellular AK activity)): 1.2 | fold induction at 50 µM (E. coli; […], read-out: AK-based Prestwick Library Screening Results, E. coli (fold increase in extracellular AK activity)): 1.1

C[N+]1(C)CCC[C@H]1C(=O)[O-].Cl [Stachydrine hydrochloride]
AK-based Prestwick Library Screening Results, E. faecium (fold increase in extracellular AK activity) (E. faecium; planktonic): 1.0 | AK-based Prestwick Library Screening Results, S. aureus (fold increase in extracellular AK activity) ([1]; planktonic): 1.0 | AK-based Prestwick Library Screening Results, K. pneumoniae (fold increase in extracellular AK activity) (K. pneumoniae; planktonic): 1.1 | AK-based Prestwick Library Screening Results, A. baumannii (fold increase in extracellular AK activity) ([2]; planktonic): 1.4 | AK-based Prestwick Library Screening Results, P. aeruginosa (fold increase in extracellular AK activity) (P. aeruginosa; planktonic): 1.2 | AK-based Prestwick Library Screening Results, E. cloacae (fold increase in extracellular AK activity) (E. cloacae; planktonic): 1.5 | AK-based Prestwick Library Screening Results, E. coli (fold increase in extracellular AK activity) (E. coli; planktonic): 1.4

COC1=CC(=O)C[C@@H](C)[C@]12Oc1c(Cl)c(OC)cc(OC)c1C2=O [Griseofulvin]
fold induction at 50 µM (E. faecium; [3]): 1.1 | fold induction at 50 µM [1, 4]: 1.4 | fold induction at 50 µM (K. pneumoniae; [5]): 0.9 | fold induction at 50 µM [2, 6]: 1.4 | fold induction at 50 µM (P. aeruginosa; [7]): 1.3 | fold induction at 50 µM (E. cloacae; [8]): 1.3 | fold induction at 50 µM (E. coli; [9]): 1.3

C[C@H](CS)C(=O)N1CCC[C@H]1C(=O)O [Captopril]
fold induction at 50 µM (E. faecium; 384-well format, cutoff for positive-scoring molecules 3-fold increase, read-out: AK-based Prestwick Library Screening Results, E. faecium (increase in extracellular AK activity)): 1 | fold induction at 50 µM ([1]; 384-well format, cutoff for positive-scoring molecules 3-fold increase, read-out: AK-based Prestwick Library Screening Results, S. aureus (increase in extracellular AK activity)): 0.7 | fold induction at 50 µM (K. pneumoniae; 384-well format, cutoff for positive-scoring molecules 3-fold increase, read-out: AK-based Prestwick Library Screening Results, K. pneumoniae (increase in extracellular AK activity)): 0.6 | fold induction at 50 µM ([2]; 384-well format, cutoff for positive-scoring molecules 3-fold increase, read-out: AK-based Prestwick Library Screening Results, A. baumannii (increase in extracellular AK activity)): 0.8 | fold induction at 50 µM (P. aeruginosa; 384-well format, cutoff for positive-scoring molecules 3-fold increase, read-out: AK-based Prestwick Library Screening Results, P. aeruginosa (increase in extracellular AK activity)): 0.6 | fold induction at 50 µM (E. cloacae; 384-well format, cutoff for positive-scoring molecules 3-fold increase, read-out: AK-based Prestwick Library Screening Results, E. cloacae (increase in extracellular AK activity)): 0.8 | fold induction at 50 µM (E. coli; 384-well format, cutoff for positive-scoring molecules 3-fold increase, read-out: AK-based Prestwick Library Screening Results, E. coli (increase in extracellular AK activity)): 0.7

CCC[C@@H]1C[C@@H](C(=O)N[C@@H]([C@H]2O[C@H](SC)[C@H](O)[C@@H](O)[C@H]2O)[C@H](C)Cl)N(C)C1 [Clindamycin hydrochloride]
fold induction at 50 µM (E. faecium; [3]): 1.2 | fold induction at 50 µM [1, 4]: 8.4 | fold induction at 50 µM (K. pneumoniae; [5]): 0.5 | fold induction at 50 µM [2, 6]: 1 | fold induction at 50 µM (P. aeruginosa; [7]): 1.1 | fold induction at 50 µM (E. cloacae; [8]): 1.7 | fold induction at 50 µM (E. coli; [9]): 0.8

O=C(O)c1cccnc1 [Niacin]
fold induction at 50 µM (E. faecium; [10]): 0.9 | fold induction at 50 µM [1, 11]: 0.6 | fold induction at 50 µM (K. pneumoniae; [12]): 0.5 | fold induction at 50 µM [2, 13]: 0.6 | fold induction at 50 µM (P. aeruginosa; [14]): 0.6 | fold induction at 50 µM (E. cloacae; [15]): 0.7 | fold induction at 50 µM (E. coli; [16]): 0.7

O=C(O)c1cc(-c2ccc(F)cc2F)ccc1O [Diflunisal]
fold induction at 50 µM (E. faecium; 384-well format, […], read-out: AK-based Prestwick Library Screening Results, E. faecium (increase in extracellular AK activity)): 0.9 | fold induction at 50 µM ([1]; 384-well format, […], read-out: AK-based Prestwick Library Screening Results, S. aureus (increase in extracellular AK activity)): 0.6 | fold induction at 50 µM (K. pneumoniae; 384-well format, […], read-out: AK-based Prestwick Library Screening Results, K. pneumoniae (increase in extracellular AK activity)): 0.6 | fold induction at 50 µM ([2]; 384-well format, […], read-out: AK-based Prestwick Library Screening Results, A. baumannii (increase in extracellular AK activity)): 0.7 | fold induction at 50 µM (P. aeruginosa; 384-well format, […], read-out: AK-based Prestwick Library Screening Results, P. aeruginosa (increase in extracellular AK activity)): 0.6 | fold induction at 50 µM (E. cloacae; 384-well format, […], read-out: AK-based Prestwick Library Screening Results, E. cloacae (increase in extracellular AK activity)): 1.2 | fold induction at 50 µM (E. coli; 384-well format, […], read-out: AK-based Prestwick Library Screening Results, E. coli (increase in extracellular AK activity)): 0.7

O.O=C(O)[C@@H]1[C@H]2C[C@H]3c4[nH]c5ccccc5c4CCN3C[C@@H]2CC[C@@H]1O [Yohimbinic acid monohydrate]
AK-based Prestwick Library Screening Results, E. faecium (increase in extracellular AK activity) (E. faecium; planktonic E. faecium, […]): 0.9 | AK-based Prestwick Library Screening Results, S. aureus (increase in extracellular AK activity) ([1]; planktonic S. aureus, […]): 0.7 | AK-based Prestwick Library Screening Results, K. pneumoniae (increase in extracellular AK activity) (K. pneumoniae; planktonic K. pneumoniae, […]): 0.7 | AK-based Prestwick Library Screening Results, A. baumannii (increase in extracellular AK activity) ([2]; planktonic A. baumannii, […]): 0.8 | AK-based Prestwick Library Screening Results, P. aeruginosa (increase in extracellular AK activity) (P. aeruginosa; planktonic P. aeruginosa, […]): 0.9 | AK-based Prestwick Library Screening Results, E. cloacae (increase in extracellular AK activity) (E. cloacae; planktonic E. cloacae, […]): 0.9 | AK-based Prestwick Library Screening Results, E. coli (increase in extracellular AK activity) (E. coli; planktonic E. coli, […]): 0.9
